Experimental data taken from article PMC9289672, “Optimization of Antibacterial Activity in Tibetan Swine α-Helix Peptide TP by Site-Directed Mutagenesis” (Frontiers in Microbiology, 2022).
Where no end group is shown, it is not given here.

How the values were obtained:
Gram-negative bacteria = test: Geometric mean of MIC and therapeutic index; format: cell-based; details: for Therapeutic index (TI), Gram-negative bacteria: MHC/GM, 128 μm used when 50% hemolysis not observed at 128 μm
Protocol: (§1) The bacteria were cultured overnight in the MHB medium and transferred to the new MHB the next day until the bacteria reached the exponential growth stage. The bacteria were diluted with MHB to 2 × 10^5 CFU/ml. About 50 μl of polypeptide and equal volume of bacterial suspension was added to a 96-well plate to give the final concentration of polypeptide between 1 and 128 μm. The last two columns are negative (MHB only) and positive (bacterial and MHB) controls and incubated at 37°C for 18–24 h. Optical density was measured at an absorbance wavelength of 492 nm using a microplate reader (Tecan GENios F129004, Tecan, Austria). At least three independent measurements were taken. Each trial was conducted two times in parallel. A total of three independent assays were carried out.
(§2) Trp is a hydrophobic amino acid with aromatic side chains. It is a special amino acid in peptide design. Previous studies have pointed out that introducing amino acids will also bring toxicity while improving activity. […] For further evaluating the cell selectivity of the peptides, we also calculated the SI which defined as the ratio of MHC to the geometric mean (GM) (Dufourc, [2008]).

Gram-positive bacteria = test: Geometric mean of MIC and therapeutic index; format: cell-based; details: for Therapeutic index (TI), Gram-positive bacteria: MHC/GM, 128 μm used when 50% hemolysis not observed at 128 μm
Protocol: as §1, §2

[1] = tested on: hRBCs (human red blood cells)
Protocol: The cytotoxicity of each peptide was assessed with IPEC-J12 and HEK 293T cells. […] Each trial was conducted two times in parallel. A total of three independent assays were carried out.

all strains in Table 2 = test: Geometric mean of MIC and therapeutic index; format: cell-based; details: for Therapeutic index (TI) / selectivity index (SI), All: MHC/GM, 128 μm used when 50% hemolysis not observed at 128 μm
Protocol: as §1
Trp is a hydrophobic amino acid with aromatic side chains. It is a special amino acid in peptide design. Previous studies have pointed out that introducing amino acids will also bring toxicity while improving activity. Therefore, at the beginning of the design, we predicted that selecting Trp as hydrophobic amino acid to substitute H-H position would bring certain toxicity to the peptide. Thus, as expected, the introduction of Trp increases the activity and toxicity of these peptides. […] Meanwhile, the virulence of TP(i+4) 1&2&5&6 and TP(i+4) 1&2&6&7 was lower than that of TP(i+4) 1&2&5&7. We infer that the location of hydrophobic centers can effectively reduce peptide toxicity by Trp substitution. For further evaluating the cell selectivity of the peptides, we also calculated the SI which defined as the ratio of MHC to the geometric mean (GM) (Dufourc, [2008]).

[2] = tested on: Salmonella typhimurium C7731; details: MHB, bacteria diluted to 2 × 10^5 CFU/ml, peptide 1-128 μm, 37°C 18-24 h, OD 492 nm; three independent assays, two in parallel
From the text: (§3) The bacteria strains Escherichia coli ATCC 25922, Escherichia coli UB1005, Salmonella typhimurium ATCC 14028, Salmonella typhimurium C7731, Pseudomonas aeruginosa ATCC 27853, Pseudomonas aeruginosa PAO1, Staphylococcus aureus ATCC 29213, Staphylococcus aureus ATCC 25923, Methicillin-resistant Staphylococcus aureus (MRSA) 43300, Enterococcus faecalis ATCC 29212, and Staphylococcus epidermidis ATCC 12228 were obtained from the College of Veterinary Medicine, Northeast Agricultural University (Harbin, China).
as §1

[3] = tested on: Salmonella typhimurium ATCC 14028
From the text: as §3, §1

[4] = tested on: Staphylococcus epidermidis ATCC 12228
From the text: as §3, §1

[5] = tested on: Methicillin-resistant Staphylococcus aureus (MRSA) 43300; details: Methicillin-resistant 43300
From the text: as §3, §1

[6] = tested on: Pseudomonas aeruginosa PAO1
From the text: as §3, §1

[7] = tested on: Escherichia coli ATCC 25922
From the text: as §3, §1

[8] = tested on: Enterococcus faecalis ATCC 29212
From the text: as §3, §1

Escherichia coli UB1005 = details: MHB, bacteria diluted to 2 × 10^5 CFU/ml, peptide 1-128 μm, 37°C 18-24 h, OD 492 nm; three independent assays, two in parallel
From the text: as §3, §1

[9] = tested on: Staphylococcus aureus ATCC 29213
From the text: as §3, §1

[10] = tested on: Staphylococcus aureus ATCC 25923
From the text: as §3, §1

[11] = tested on: Pseudomonas aeruginosa ATCC 27853
From the text: as §3, §1

[12] = strains of Table 2, 128 μm used when no activity at 128 μm

Substance	Therapeutic index (TI), Gram-negative bacteria (Gram-negative bacteria)	Therapeutic index (TI), Gram-positive bacteria (Gram-positive bacteria)	MHC (concentration of peptide that causes hemolysis of 50% of human red blood cells) [1]	Therapeutic index (TI) / selectivity index (SI), All (all strains in Table 2)	MIC, S. typhimurium 7731 [2]	MIC, S. typhimurium 14028 [3]	MIC, S. epidermidis 12228 [4]	MIC, S. aureus 43300 [5]	MIC, P. aeruginosa PAO1 [6]	MIC, E. coli 25922 [7]	MIC, E. faecalis 29212 [8]	MIC, E. coli UB1005 (Escherichia coli UB1005)	MIC, S. aureus 29213 [9]	MIC, S. aureus 25923 [10]	MIC, P. aeruginosa 27853 [11]	Geometric mean (GM) of MIC, Gram-negative bacteria (Gram-negative bacteria; [12])	Geometric mean (GM) of MIC, Gram-positive bacteria (Gram-positive bacteria; [12])	Geometric mean (GM) of MIC, All (all strains in Table 2; all strains in Table 2, 128 μm used when no activity at 128 μm)
ASVVKKLTKGVAGLLK-NH2 [TP(i+4) 1]	2.83	1.00	>128 µM	1.68	64 µM	128 µM	>128 µM	>128 µM	64 µM	16 µM	>128 µM	16 µM	>128 µM	>128 µM	64 µM	–	–	–
AKVVNKLTKKVAKLLK-NH2 [TP(i+4) 2&3&4]	4.00	1.00	>128 µM	2.00	64 µM	64 µM	>128 µM	>128 µM	8 µM	16 µM	>128 µM	16 µM	>128 µM	>128 µM	128 µM	–	–	–
ASVVNKLTKKVAKLLK-NH2 [TP(i+4) 2&4]	8.00	1.00	>128 µM	2.83	16 µM	64 µM	>128 µM	>128 µM	8 µM	8 µM	>128 µM	8 µM	>128 µM	>128 µM	32 µM	–	–	–
AKVVKKLTKGVAKLLK-NH2 [TP(i+4) 1&2&3]	3.56	1.00	>128 µM	1.89	64 µM	128 µM	>128 µM	>128 µM	16 µM	32 µM	>128 µM	8 µM	>128 µM	>128 µM	64 µM	–	–	–
AKVVKKLTKGVAGLLK-NH2 [TP(i+4) 1&3]	–	–	>128 µM	–	–	>128 µM	>128 µM	>128 µM	64 µM	64 µM	>128 µM	–	>128 µM	>128 µM	128 µM	71.84 µM	128.00 µM	95.89 µM
ASVVKKLTKKVAGLLK-NH2 [TP(i+4) 1&4]	–	1.00	>128 µM	2.56	32 µM	64 µM	>128 µM	>128 µM	16 µM	8 µM	>128 µM	8 µM	>128 µM	>128 µM	32 µM	–	–	–
AKVVNKLTGGVAGLLK-NH2 [TP(i+4) 3]	1.00	1.00	>128 µM	1.00	>128 µM	>128 µM	>128 µM	>128 µM	>128 µM	>128 µM	>128 µM	>128 µM	>128 µM	>128 µM	>128 µM	–	–	–
AKVVNKLTGKVAGLLK-NH2 [TP(i+4) 3&4]	1.12	1.00	>128 µM	1.06	>128 µM	>128 µM	>128 µM	>128 µM	128 µM	128 µM	>128 µM	64 µM	>128 µM	>128 µM	>128 µM	–	–	–
ASVVNKLTGGVAGLLK-NH2 [TP, reference compound]	1.00	1.00	>128 µM	1.00	>128 µM	>128 µM	>128 µM	>128 µM	>128 µM	>128 µM	>128 µM	>128 µM	>128 µM	>128 µM	>128 µM	–	–	–
ASVVKKLTKKVAKLLK-NH2 [TP(i+4) 1&2&4]	8.90	1.00	>128 µM	2.98	32 µM	64 µM	>128 µM	>128 µM	8 µM	4 µM	>128 µM	4 µM	>128 µM	>128 µM	32 µM	–	–	–
ASVVNKLTGKVAGLLK-NH2 [TP(i+4) 4]	2.83	1.00	>128 µM	1.68	64 µM	128 µM	>128 µM	>128 µM	64 µM	16 µM	>128 µM	16 µM	>128 µM	>128 µM	64 µM	–	–	–
